Key:
[1] = tested on: Phakopsora pachyrhizi (F129L); assay: Protective control of soybean rust on soybeans (PHAKPA P6); type: in vivo; conditions: soybean rust F129L; for % PHAKPA (F129L) Disease level P6 at 4 ppm: protective P6, 4 ppm; for % PHAKPA (F129L) Disease level P6 at 16 ppm: protective P6, 16 ppm
[2] = tested on: Phakopsora pachyrhizi (F129L); assay: Protective control of soybean rust on soybeans (PHAKPA P2); type: in vivo; conditions: soybean rust F129L; for % PHAKPA (F129L) Disease level P2 at 4 ppm: protective P2, 4 ppm; for % PHAKPA (F129L) Disease level P2 at 16 ppm: protective P2, 16 ppm

| Structure (SMILES) | % PHAKPA (F129L) Disease level P6 at 4 ppm [1] [%] | % PHAKPA (F129L) Disease level P6 at 16 ppm [1] [%] | % PHAKPA (F129L) Disease level P2 at 4 ppm [2] [%] | % PHAKPA (F129L) Disease level P2 at 16 ppm [2] [%] |
| --- | --- | --- | --- | --- |
| CO/N=C(/C(=O)OC)c1cccc(C)c1CO/N=C(\C)c1ccc(C(C)=O)cc1 [compound 166] | 90 | 43 | 100 | 83 |
| CNC(=O)/C(=N/OC)c1cccc(C)c1CO/N=C(\C)c1cc(Cl)cc(Cl)c1F [compound 167] | 9 | 0 | 2 | 0 |
| CNC(=O)/C(=N/OC)c1cccc(C)c1CO/N=C(\C)c1ccc(Br)cc1 [compound 168] | 5 | 0 | 2 | 0 |
| CO/N=C(/C(=O)OC)c1cccc(C)c1CO/N=C(\C)c1c(F)cc(F)cc1F [compound 169] | 77 | 0 | 77 | 0 |
| CNC(=O)/C(=N/OC)c1cccc(C)c1CO/N=C(\C)c1c(F)cc(F)cc1F [compound 170] | 4 | 0 | 9 | 0 |
| CO/N=C(/C(=O)OC)c1cccc(C)c1CO/N=C(\C)c1c(Cl)cccc1Cl [compound 171] | 80 | 50 | 100 | 100 |
| C#Cc1ccc(/C(C)=N/OCc2c(C)cccc2/C(=N\OC)C(=O)OC)cc1 [compound 172] | 83 | 12 | 35 | 1 |
| CNC(=O)/C(=N/OC)c1cccc(C)c1CO/N=C(\C)c1c(Cl)cccc1Cl [compound 173] | 97 | 17 | 100 | 53 |
| CO/N=C(/C(=O)OC)c1cccc(C)c1CO/N=C(\C)c1c(C)cccc1C [compound 174] | 80 | 70 | 100 | 100 |
| CCc1ccccc1/C(C)=N/OCc1c(C)cccc1/C(=N\OC)C(=O)OC [compound 175] | 100 | 93 | 100 | 97 |
| CCc1ccccc1/C(C)=N/OCc1c(C)cccc1/C(=N\OC)C(=O)NC [compound 176] | 100 | 90 | 100 | 100 |
| CO/N=C(/C(=O)OC)c1cccc(C)c1CO/N=C(\C)c1cccc(F)c1F [compound 177] | 87 | 47 | 100 | 21 |
| CNC(=O)/C(=N/OC)c1cccc(C)c1CO/N=C(\C)c1cccc(F)c1F [compound 178] | 2 | 0 | 6 | 0 |
| CNC(=O)/C(=N/OC)c1cccc(C)c1CO/N=C(\C)c1ccc(C(C)=O)cc1 [compound 179] | 90 | 28 | 100 | 47 |
| CO/N=C(/C(=O)OC)c1cccc(C)c1CO/N=C(\C)c1cc(C(F)(F)F)cc(F)c1F [compound 180] | 5 | 0 | 40 | 7 |
| CNC(=O)/C(=N/OC)c1cccc(C)c1CO/N=C(\C)c1ccc(/C(C)=N/OC)cc1 [compound 182] | 13 | 0 | 6 | 0 |
| CCc1ccc(/C(C)=N/OCc2c(C)cccc2/C(=N\OC)C(=O)OC)cc1 [compound 183] | 38 | 2 | 16 | 0 |
| CNC(=O)/C(=N/OC)c1cccc(C)c1CO/N=C(\C)c1ccccc1OC(F)(F)F [compound 184] | 16 | 1 | 42 | 4 |

| Structure (SMILES) | % PHAKPA (F129L) Disease level P6 at 4 ppm [1] [%] | % PHAKPA (F129L) Disease level P6 at 16 ppm [1] [%] | % PHAKPA (F129L) Disease level P2 at 4 ppm [2] [%] | % PHAKPA (F129L) Disease level P2 at 16 ppm [2] [%] |
| --- | --- | --- | --- | --- |
| CNC(=O)/C(=N/OC)c1cccc(C)c1CO/N=C(\C)c1cc(C(F)(F)F)ccc1C1CC1 [compound 185] | 90 | 77 | 100 | 67 |
| CNC(=O)/C(=N/OC)c1cccc(C)c1CO/N=C(\COC)c1cccc(C(F)(F)F)c1 [compound 186] | 2 | 0 | 1 | 0 |
| CO/N=C(/C)c1ccccc1/C(C)=N/OCc1c(C)cccc1/C(=N\OC)C(=O)OC [compound 187] | 90 | 90 | 100 | 100 |
| CC/C(=N\OCc1c(C)cccc1/C(=N\OC)C(=O)NC)c1ccccc1C(F)(F)F [compound 189] | 97 | 37 | 82 | 28 |
| CNC(=O)/C(=N/OC)c1cccc(C)c1CO/N=C(\C)c1cc(C(F)(F)F)ccc1Cl [compound 190] | 45 | 3 | 20 | 0 |
| COC/C(=N\OCc1c(C)cccc1/C(=N\OC)C(=O)OC)c1cccc(C(F)(F)F)c1 [compound 191] | 83 | 22 | 77 | 2 |
| C#Cc1cc(C#C)cc(/C(C)=N/OCc2c(C)cccc2/C(=N\OC)C(=O)NC)c1 [compound 193] | 14 | 0 | 15 | 0 |
| C#Cc1ccc(/C(C)=N/OCc2c(C)cccc2/C(=N\OC)C(=O)NC)cc1 [compound 196] | 11 | 5 | 1 | 0 |
| CNC(=O)/C(=N/OC)c1cccc(C)c1CO/N=C(\C)c1cc(C(F)(F)F)cc(F)c1F [compound 197] | 2 | 0 | 0 | 0 |
| CO/N=C(/C(=O)OC)c1cccc(C)c1CO/N=C(\C)c1cc(C(F)(F)F)ccc1F [compound 198] | 0 | 0 | 4 | 1 |
| CNC(=O)/C(=N/OC)c1cccc(C)c1CO/N=C(\C)c1cc(C(F)(F)F)ccc1F [compound 199] | 0 | 0 | 0 | 0 |
| CO/N=C(/C(=O)OC)c1cccc(C)c1CO/N=C(\C)c1cc(C(F)(F)F)ccc1Cl [compound 200] | 100 | 77 | 93 | 73 |
| CNC(=O)/C(=N/OC)c1cccc(C)c1CO/N=C(\C)c1c(F)cccc1OC(F)F [compound 202] | 100 | 47 | 90 | 22 |
| CO/N=C(/C(=O)OC)c1cccc(C)c1CO/N=C(\C)c1cc(C)ccc1C [compound 203] | 93 | 32 | 87 | 32 |
| CC/C(=N\OCc1c(C)cccc1/C(=N\OC)C(=O)OC)c1cccc(C(F)(F)F)c1 [compound 204] | 80 | 5 | 50 | 4 |
| CO/N=C(/C(=O)OC)c1cccc(C)c1CO/N=C(/c1cccc(C(F)(F)F)c1)C(C)C [compound 206] | 100 | 90 | 100 | 67 |
| CNC(=O)/C(=N/OC)c1cccc(C)c1CO/N=C(/c1cccc(C(F)(F)F)c1)C(C)C [compound 207] | 83 | 5 | 40 | 11 |
| C=Cc1ccccc1/C(C)=N/OCc1c(C)cccc1/C(=N\OC)C(=O)NC [compound 211] | 100 | 77 | 100 | 43 |

Source: patent US20230172204A1 (BASF SE, priority 2020, published 2023)
